Reference: PubChem BioAssay AID330 (DTP/NCI, 2004)
Several values for one entry are separate records, joined by “and”; a condition that tells them apart may be missing. Equal entries are not always repeated. Toxic doses and inconclusive results are not listed.

System: P388 leukemia ip, CD2F1 mice, survival T/C
Experiment: NCI In Vivo Anticancer Drug Screen. Data for tumor model P388 Leukemia (intraperitoneal) in CD2F1 (CDF1) mice
Details: endpoint: median survival time, higher = longer survival
In short: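 Mice carrying the transplanted tumor received test compound or vehicle. Survival was recorded in each group, and the value is the treated-group measurement divided by that of the vehicle-treated control group.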

[1] = dose: 50.0 mg/kg/injection, schedule: Q01DX009 (ip), vehicle: Klucel (hydroxypropylcellulose) (HPC)
[2] = dose: 100.0 mg/kg/injection, schedule: Q01DX009 (ip), vehicle: Klucel (hydroxypropylcellulose) (HPC)
[3] = dose: 200.0 mg/kg/injection, schedule: Q01DX009 (ip), vehicle: Klucel (hydroxypropylcellulose) (HPC)
[4] = dose: 50.0 mg/kg/injection, schedule: Q01DX005 (ip), vehicle: Klucel (hydroxypropylcellulose) (HPC)
[5] = dose: 100.0 mg/kg/injection, schedule: Q01DX005 (ip), vehicle: Klucel (hydroxypropylcellulose) (HPC)
[6] = dose: 200.0 mg/kg/injection, schedule: Q01DX005 (ip), vehicle: Klucel (hydroxypropylcellulose) (HPC)
[7] = dose: 60.0 mg/kg/injection, schedule: Q01DX005 (ip), vehicle: saline with Tween-80
[8] = dose: 120.0 mg/kg/injection, schedule: Q01DX005 (ip), vehicle: saline with Tween-80
[9] = dose: 240.0 mg/kg/injection, schedule: Q01DX005 (ip), vehicle: saline with Tween-80
[10] = dose: 50.0 mg/kg/injection, schedule: Q01DX009 (ip), vehicle: saline
[11] = dose: 100.0 mg/kg/injection, schedule: Q01DX009 (ip), vehicle: saline
[12] = dose: 50.0 mg/kg/injection, schedule: Q01DX009 (ip), vehicle: saline with Tween-80
[13] = dose: 100.0 mg/kg/injection, schedule: Q01DX009 (ip), vehicle: saline with Tween-80
[14] = dose: 200.0 mg/kg/injection, schedule: Q01DX009 (ip), vehicle: saline with Tween-80
[15] = dose: 60.0 mg/kg/injection, schedule: Q01DX005 (ip), vehicle: saline
[16] = dose: 120.0 mg/kg/injection, schedule: Q01DX005 (ip), vehicle: saline

SMILES: CS(=O)(=O)c1ccccc1NN
- T/C [1]: 111 % of control
- T/C [2]: 105 % of control
- T/C [3]: 100 % of control

SMILES: CC(/C=C/c1ccccc1)=N\O
- T/C [4]: 97 % of control
- T/C [5]: 99 % of control
- T/C [6]: 97 % of control

SMILES: CC(C)c1cccc(C(C)C)c1N1C(=O)C(=O)C(c2nc3ccccc3s2)C(=O)C1=O
- T/C [7]: 103 % of control
- T/C [8]: 102 % of control
- T/C [9]: 103 % of control

SMILES: CSCCC(N)C(=O)OCN1C(=O)C2C3C=CC(C2C1=O)C1C2C(=O)N(COC(=O)C(N)CCSC)C(=O)C2C31 (stereo unspecified)
- T/C (dose: 12.5 mg/kg/injection, schedule: Q01DX009 (ip), vehicle: saline): 117 % of control
- T/C (dose: 25.0 mg/kg/injection, schedule: Q01DX009 (ip), vehicle: saline): 122 % of control and 93 % of control
- T/C [10]: 109 % of control
- T/C [11]: 171 % of control and 200 % of control

SMILES: CCOc1cc2c(cc1OC)c[n+](C)c1c3cc(OC)c(OC)cc3ccc21
- T/C (dose: 10.0 mg/kg/injection, schedule: Q01DX009 (ip), vehicle: water): 122 % of control

SMILES: COC(=O)/C(=C/C=C/c1ccccc1)N=[N+]=[N-]
- T/C (dose: 100.0 mg/kg/injection, schedule: Q01DX001 (ip), vehicle: saline with Tween-80): 114 % of control
- T/C (dose: 200.0 mg/kg/injection, schedule: Q01DX001 (ip), vehicle: saline with Tween-80): 105 % of control
- T/C (dose: 400.0 mg/kg/injection, schedule: Q01DX001 (ip), vehicle: saline with Tween-80): 100 % of control

SMILES: Clc1nnc(Cl)c(Cl)c1Cl
- T/C (dose: 0.1 mg/kg/injection, schedule: Q01DX009 (ip), vehicle: saline with Tween-80): 100 % of control
- T/C (dose: 0.1 mg/kg/injection, schedule: Q04DX003 (ip), vehicle: saline with Tween-80): 100 % of control
- T/C (dose: 0.2 mg/kg/injection, schedule: Q01DX009 (ip), vehicle: saline with Tween-80): 95 % of control
- T/C (dose: 0.2 mg/kg/injection, schedule: Q04DX003 (ip), vehicle: saline with Tween-80): 100 % of control
- T/C (dose: 0.38 mg/kg/injection, schedule: Q04DX003 (ip), vehicle: saline with Tween-80): 90 % of control
- T/C (dose: 0.4 mg/kg/injection, schedule: Q04DX003 (ip), vehicle: saline with Tween-80): 100 % of control

SMILES: C(=C=C(c1ccccc1)c1ccccc1)=C(c1ccccc1)c1ccccc1
- T/C [10]: 101 % of control
- T/C [11]: 93 % of control
- T/C (dose: 200.0 mg/kg/injection, schedule: Q01DX009 (ip), vehicle: saline): 92 % of control

SMILES: CC(=O)N1c2ccccc2C23CCN4CC5=CCOC(O)C(C5CC42)C13 (stereo unspecified)
- T/C (dose: 20.0 mg/kg/injection, schedule: Q01DX009 (ip), vehicle: Klucel (hydroxypropylcellulose) (HPC)): 107 % of control
- T/C (dose: 40.0 mg/kg/injection, schedule: Q01DX009 (ip), vehicle: Klucel (hydroxypropylcellulose) (HPC)): 108 % of control
- T/C (dose: 80.0 mg/kg/injection, schedule: Q01DX009 (ip), vehicle: Klucel (hydroxypropylcellulose) (HPC)): 110 % of control
- T/C (dose: 160.0 mg/kg/injection, schedule: Q01DX009 (ip), vehicle: Klucel (hydroxypropylcellulose) (HPC)): 118 % of control

SMILES: CC1(C)OC(CP(=O)(c2ccccc2)c2ccccc2)C(CP(=O)(c2ccccc2)c2ccccc2)O1 (stereo unspecified)
- T/C [4]: 97 % of control
- T/C [5]: 97 % of control
- T/C [6]: 94 % of control

SMILES: CCCCCCCN(CCCCCCC)CC(O)c1cc2ccccc2c2cc(Br)ccc12 (stereo unspecified)
- T/C (dose: 50.0 mg/kg/injection, schedule: Q01DX005 (ip), vehicle: saline with Tween-80): 109 % of control
- T/C (dose: 100.0 mg/kg/injection, schedule: Q01DX005 (ip), vehicle: saline with Tween-80): 104 % of control
- T/C (dose: 200.0 mg/kg/injection, schedule: Q01DX005 (ip), vehicle: saline with Tween-80): 99 % of control

SMILES: O=C(c1ccccc1)C1Nc2ccc(Cl)cc2C2C=CCC12 (stereo unspecified)
- T/C [7]: 102 % of control
- T/C [8]: 94 % of control
- T/C [9]: 93 % of control

SMILES: CSC(SC)c1cc(-c2c(Cl)cccc2Cl)no1
- T/C [7]: 102 % of control
- T/C [8]: 103 % of control
- T/C [9]: 103 % of control

SMILES: CCOc1ccccc1C=C1c2ccccc2C(=O)c2ccccc21
- T/C [12]: 96 % of control
- T/C [13]: 92 % of control
- T/C [14]: 91 % of control

SMILES: CCCCN(CCNc1cc(OC)cc2cccnc12)C(C)CC (stereo unspecified)
- T/C (dose: 12.5 mg/kg/injection, schedule: Q01DX005 (ip), vehicle: saline): 112 % of control
- T/C (dose: 25.0 mg/kg/injection, schedule: Q01DX005 (ip), vehicle: saline): 119 % of control
- T/C (dose: 50.0 mg/kg/injection, schedule: Q01DX005 (ip), vehicle: saline): 98 % of control and 104 % of control

SMILES: C=C(C)C12CC(COC(=O)c3ccccc3)C34OC5(OC1C3C1OC1(COC(=O)CCCCCCCCCCCCCCC)C(O)C1(O)C(OC(=O)c3ccccc3)C(C)C(C(C)CCCCCCC5O)C14)O2 (stereo unspecified)
- T/C (dose: 12.5 micrograms/kg/injection, schedule: Q01DX009 (ip), vehicle: saline): 103 % of control
- T/C (dose: 25.0 micrograms/kg/injection, schedule: Q01DX009 (ip), vehicle: saline): 103 % of control
- T/C (dose: 50.0 micrograms/kg/injection, schedule: Q01DX009 (ip), vehicle: saline): 99 % of control

SMILES: COc1cc(/C=C/C(=O)CC(=O)/C=C/c2ccc(O)c(OC)c2)ccc1O
- T/C (dose: 6.25 mg/kg/injection, schedule: Q01DX009 (ip), vehicle: saline with Tween-80): 103 % of control
- T/C (dose: 12.5 mg/kg/injection, schedule: Q01DX009 (ip), vehicle: saline with Tween-80): 100 % of control
- T/C (dose: 25.0 mg/kg/injection, schedule: Q01DX009 (ip), vehicle: saline with Tween-80): 100 % of control
- T/C [12]: 94 % of control

SMILES: CCOC(=O)c1nc2ccccc2c(=O)[nH]1
- T/C [13]: 102 % of control
- T/C [14]: 108 % of control
- T/C (dose: 400.0 mg/kg/injection, schedule: Q01DX009 (ip), vehicle: saline with Tween-80): 100 % of control

SMILES: CCC1=C[C@H]2CN(CCc3c([nH]c4ccccc34)[C@@](C(=O)OC)(c3cc4c(cc3OC)N(C=O)[C@H]3[C@@](O)(C(=O)OC)[C@H](OC(C)=O)[C@]5(CC)C=CCN6CC[C@]43[C@@H]65)C2)C1
- T/C (dose: 0.13 mg/kg/injection, schedule: Q01DX001 (ip), vehicle: water): 99 % of control
- T/C (dose: 0.25 mg/kg/injection, schedule: Q01DX001 (ip), vehicle: water): 100 % of control
- T/C (dose: 0.5 mg/kg/injection, schedule: Q01DX001 (ip), vehicle: water): 116 % of control

SMILES: COC(=O)C(CCC1NCCc2c1[nH]c1ccccc21)(Sc1ccccc1)Sc1ccccc1 (stereo unspecified)
- T/C (dose: 60.0 mg/kg/injection, schedule: Q01DX005 (ip), vehicle: Klucel (hydroxypropylcellulose) (HPC)): 108 % of control
- T/C (dose: 120.0 mg/kg/injection, schedule: Q01DX005 (ip), vehicle: Klucel (hydroxypropylcellulose) (HPC)): 105 % of control
- T/C (dose: 240.0 mg/kg/injection, schedule: Q01DX005 (ip), vehicle: Klucel (hydroxypropylcellulose) (HPC)): 103 % of control

SMILES: COC(=O)[C@@]12C(=O)N[C@@H](Cc3ccccc3)[C@@H]1[C@H](C)C(C)=C[C@@H]2CO
- T/C [15]: 98 % of control
- T/C [16]: 95 % of control
- T/C (dose: 240.0 mg/kg/injection, schedule: Q01DX005 (ip), vehicle: saline): 98 % of control

SMILES: CCN(CC)CCNC(=O)c1ccc2c(c1)C(=O)c1ccccc1C2=O
- T/C (dose: 100.0 mg/kg/injection, schedule: Q04DX003 (ip), vehicle: saline): 108 % of control
- T/C (dose: 200.0 mg/kg/injection, schedule: Q04DX003 (ip), vehicle: saline): 119 % of control

SMILES: CC(C)(CO)COC1OCN(C(C)(C)C)CC1(C)C (stereo unspecified)
- T/C [12]: 100 % of control
- T/C [13]: 110 % of control
- T/C [14]: 112 % of control

SMILES: CC(C)(C)CC(C)(C)c1ccc(OCc2ccc(F)cc2)cc1
- T/C [12]: 99 % of control
- T/C [13]: 95 % of control
- T/C [14]: 98 % of control

SMILES: CC(=O)Oc1c2c(c(C)c3ccccc13)C(=O)c1cccnc1C2=O
- T/C (dose: 100.0 mg/kg/injection, schedule: Q01DX001 (ip), vehicle: saline): 98 % of control
- T/C (dose: 200.0 mg/kg/injection, schedule: Q01DX001 (ip), vehicle: saline): 89 % of control
- T/C (dose: 400.0 mg/kg/injection, schedule: Q01DX001 (ip), vehicle: saline): 92 % of control

SMILES: NC1C(=O)Nc2ccccc21 (stereo unspecified)
- T/C [15]: 95 % of control
- T/C [16]: 103 % of control

SMILES: CCn1c2ccccc2c2cc(N)c(N=Nc3ccc(N(C)C)cc3)cc21
- T/C [1]: 113 % of control
- T/C [2]: 105 % of control
- T/C [3]: 103 % of control

SMILES: O=C1NC(=O)N2CC(CBr)OC2C1c1ccccc1 (stereo unspecified)
- T/C [1]: 101 % of control
- T/C [2]: 100 % of control
- T/C [3]: 100 % of control
